Assay results taken from ChEMBL document CHEMBL2169838, “Synthesis and biological evaluation of the 1-arylpyrazole class of σ(1) receptor antagonists: identification of 4-{2-[5-methyl-1-(naphthalen-2-yl)-1H-pyrazol-3-yloxy]ethyl}morpholine (S1RA, E-52862)” (J Med Chem, 2012).
Calls of active or inactive are those of the source. No cut-off for these calls is given here.

Columns and labels:
[1] = Displacement of [3H]di-o-tolylguanidine from sigma 2 receptor in guinea pig brain membranes after 120 mins by scintillation counter; type: cell membranes, Cavia porcellus, Membrane
[2] = target: Sigma non-opioid intracellular receptor 1 (Homo sapiens, UniProt Q99720); test: biochemical
Chain of Sigma non-opioid intracellular receptor 1 (Q99720 whole entry): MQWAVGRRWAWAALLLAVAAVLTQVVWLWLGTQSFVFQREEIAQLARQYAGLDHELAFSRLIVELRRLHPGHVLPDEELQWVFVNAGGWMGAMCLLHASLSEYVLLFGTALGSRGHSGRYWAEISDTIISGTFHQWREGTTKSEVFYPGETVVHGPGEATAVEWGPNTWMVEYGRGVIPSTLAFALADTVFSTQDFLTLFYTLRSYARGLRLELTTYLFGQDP
Description: Displacement of [3H](+)pentazocine from human sigma 1 receptor transfected in HEK293 cell membranes after 120 mins by scintillation counter

[3] = tested on: Mus musculus; test: Analgesic activity in CD1 mouse assessed as inhibition of capsaicin-induced mechanical hypersensitivity at 16 mg/kg, ip administered 15 mins prior to capsaicin challenge measured 30 mins post capsaicin challenge; type: functional; details: route intraperitoneal
[4] = Intrinsic clearance in human liver microsomes assessed as per mg of protein at 10 uM; type: ADME, Microsome; details: read-out: CLH
[5] = target: Voltage-gated inwardly rectifying potassium channel KCNH2 (Homo sapiens, UniProt Q12809)
Chain of Voltage-gated inwardly rectifying potassium channel KCNH2 (Q12809 whole entry): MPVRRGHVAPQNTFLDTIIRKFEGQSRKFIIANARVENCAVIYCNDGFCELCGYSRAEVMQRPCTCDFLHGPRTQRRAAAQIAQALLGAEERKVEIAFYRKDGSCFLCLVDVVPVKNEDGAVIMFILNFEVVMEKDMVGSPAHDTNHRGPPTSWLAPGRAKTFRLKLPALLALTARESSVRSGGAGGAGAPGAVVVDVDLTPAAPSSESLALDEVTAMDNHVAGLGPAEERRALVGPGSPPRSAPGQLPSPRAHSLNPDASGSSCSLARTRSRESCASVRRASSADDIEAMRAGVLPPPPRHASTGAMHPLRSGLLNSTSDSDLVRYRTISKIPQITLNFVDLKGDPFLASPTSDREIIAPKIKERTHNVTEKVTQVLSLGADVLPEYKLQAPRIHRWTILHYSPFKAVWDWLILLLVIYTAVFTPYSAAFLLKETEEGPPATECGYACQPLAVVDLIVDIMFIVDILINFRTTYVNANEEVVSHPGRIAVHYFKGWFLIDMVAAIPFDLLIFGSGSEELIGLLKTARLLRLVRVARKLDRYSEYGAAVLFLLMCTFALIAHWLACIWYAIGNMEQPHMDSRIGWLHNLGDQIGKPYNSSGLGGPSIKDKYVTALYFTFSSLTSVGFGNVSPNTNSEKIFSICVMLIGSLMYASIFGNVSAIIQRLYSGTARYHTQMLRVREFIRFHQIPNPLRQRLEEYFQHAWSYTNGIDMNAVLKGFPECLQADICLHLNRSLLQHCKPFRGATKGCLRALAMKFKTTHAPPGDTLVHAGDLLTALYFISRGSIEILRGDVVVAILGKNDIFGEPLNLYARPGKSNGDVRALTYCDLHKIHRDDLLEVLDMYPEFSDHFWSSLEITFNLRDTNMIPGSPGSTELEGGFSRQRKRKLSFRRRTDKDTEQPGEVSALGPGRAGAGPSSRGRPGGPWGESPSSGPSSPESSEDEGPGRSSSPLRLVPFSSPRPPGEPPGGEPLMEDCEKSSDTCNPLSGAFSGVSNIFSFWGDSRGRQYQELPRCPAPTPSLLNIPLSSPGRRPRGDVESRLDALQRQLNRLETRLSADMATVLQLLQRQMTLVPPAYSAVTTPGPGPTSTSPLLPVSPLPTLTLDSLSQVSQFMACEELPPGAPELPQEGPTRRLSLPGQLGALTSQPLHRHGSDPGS
Description: Inhibition of human ERG transfected in HEK293 cell membranes by whole cell patch clamp assay

[6] = tested on: Mus musculus; test: Neurotoxicity in CD1 mouse assessed as motor impairment at 32 to 64 mg/kg, ip measured after 30 to 180 mins by rotarod test; type: toxicity, organism-based; parameters: route intraperitoneal; details: in vivo
[7] = tested on: Mus musculus; test: Antihyperalgesic activity in CD1 mouse partial sciatic nerve ligation model assessed as inhibition of thermal hyperalgesia at 16 to 64 mg/kg, ip administered 45 mins by plantar test; type: functional, organism-based
[8] = tested on: Mus musculus; test: Antiallodynic activity in CD1 mouse partial sciatic nerve ligation model assessed as inhibition of mechanical allodynia at 16 to 64 mg/kg, ip administered 30 mins by von Frey test; type: functional, organism-based
[9] = tested on: Mus musculus; test: Inhibition of capsaicin-induced mechanical hypersensitivity in CD1 mouse assessed as paw withdrawal latency at 32 mg/kg, ip administered 15 mins prior to capsaicin challenge measured 30 mins post capsaicin challenge; type: functional; details: route intraperitoneal

| Structure (SMILES) | Ki [1] | Ki [2] | also measured |
| --- | --- | --- | --- |
| O=S(=O)(CCN1CCOCC1)OCCOc1ccn(-c2ccc(Cl)c(Cl)c2)n1 | > 1000 nM | 879 nM | – |
| CC(C)c1cc(OCCN2CCOCC2)nn1-c1ccc(Cl)c(Cl)c1 | > 1000 nM | 172 nM | – |
| Cc1cc(OCCN2CCOCC2)nn1-c1ccc(Cl)c(Cl)c1 | > 1000 nM | – | inhibition in vivo at 16 mg/kg [3]: 25%; microsomal CLint at 10 µM [4]: 12 µL/min/mg |
| Clc1ccc(-n2ccc(OCCCCN3CCOCC3)n2)cc1Cl | 829 nM | 17.6 nM | – |
| Cc1cc(OCCCCn2ccc3c2CCCC3=O)nn1-c1ccc(Cl)c(Cl)c1 | > 1000 nM | > 1000 nM | – |
| Clc1ccc(-n2ccc(OCCN3CCCCC3)n2)cc1Cl | 64.7 nM | 16.7 nM | – |
| Clc1ccc(-n2ccc(OCCN3CCOCC3)n2)cc1 | 357 nM | 17.8 nM | – |
| Cc1cc(SCCN2CCOCC2)nn1-c1ccc(Cl)c(Cl)c1 | > 1000 nM | 14.2 nM | IC50 [5]: > 10 µM; microsomal CLint at 10 µM [4]: 37 µL/min/mg |
| c1cn(C2CCCCC2)nc1OCCN1CCOCC1 | > 1000 nM | 23.1 nM | inhibition in vivo at 16 mg/kg [3]: 20%; IC50 [5]: > 10 µM |
| CN1CCN(CCc2ccc(Cl)c(Cl)c2)CC1 | 318 nM | 6.3 nM | – |
| Cc1cc(OCCCN2CCCC2)nn1-c1ccc(Cl)c(Cl)c1 | 62 nM | 10.4 nM | – |
| Clc1ccc(-n2ccc(OCCCN3CCCCC3)n2)cc1Cl | 37.2 nM | 9.6 nM | – |
| Cc1cc(OCCCN2CCOCC2)nn1-c1ccc(Cl)c(Cl)c1 | 638 nM | 18.9 nM | – |
| Cc1cc(OCCCCN2CCN(C)CC2)nn1-c1ccc(Cl)c(Cl)c1 | 102 nM | 9.9 nM | – |
| Cc1cc(OCCCCN2CCCC2)nn1-c1ccc(Cl)c(Cl)c1 | 12.6 nM | 6.9 nM | – |
| Clc1ccc(-n2ccc(OCCOCCN3CCCCC3)n2)cc1Cl | 14.2 nM | 36.8 nM | – |
| Cc1cc(OCCN2CCN(C)CC2)nn1-c1ccc(Cl)c(Cl)c1 | > 1000 nM | 11.1 nM | inhibition in vivo at 16 mg/kg [3]: 27%; IC50 [5]: 7.4 µM; microsomal CLint at 10 µM [4]: 3 µL/min/mg |
| O=C(CCCN1CCC(O)(c2ccc(Cl)cc2)CC1)c1ccc(F)cc1 [HALOPERIDOL] | 22 nM | – | – |
| CN(CCCCOc1ccn(-c2ccc(Cl)c(Cl)c2)n1)Cc1ccccc1 | 46.3 nM | 24 nM | – |
| COCCN(C)CCCCOc1ccn(-c2ccc(Cl)c(Cl)c2)n1 | 66.3 nM | 8.2 nM | – |
| OC(COc1ccn(-c2ccc(Cl)c(Cl)c2)n1)CN1CCOCC1 (stereo unspecified) | > 1000 nM | 128 nM | – |
| Cc1cc(OCCN2CCCC2)nn1-c1ccc2ccccc2c1 | 395 nM | 9.9 nM | – |
| Cc1cc(OCCN2C[C@@H](C)O[C@@H](C)C2)nn1-c1ccc2ccccc2c1 | > 1000 nM | 33.8 nM | IC50 [5]: 7.4 µM; microsomal CLint at 10 µM [4]: 25 µL/min/mg |
| CN1CCN(CC(O)COc2ccn(-c3ccc(Cl)c(Cl)c3)n2)CC1 (stereo unspecified) | > 1000 nM | 233 nM | – |

| Structure (SMILES) | Ki [1] | Ki [2] | also measured |
| --- | --- | --- | --- |
| CC(=O)c1c(OCCN2CCOCC2)nn(-c2ccc(Cl)c(Cl)c2)c1C | > 1000 nM | 741 nM | – |
| Cc1c(OCCN2CCOCC2)nn(-c2ccc(Cl)c(Cl)c2)c1C | 351 nM | 9.4 nM | – |
| Cc1cc(OCCCCN2CCCCC2)nn1-c1ccc(Cl)c(Cl)c1 | 47.5 nM | 7.1 nM | – |
| CC(C)(C)n1ccc(OCCN2CCOCC2)n1 | > 1000 nM | > 1000 nM | – |
| CCN(CC)CCCCOc1ccn(-c2ccc(Cl)c(Cl)c2)n1 | 104 nM | 17.2 nM | – |
| O=C(CN1CCCCC1)Nc1ccn(-c2ccc(Cl)c(Cl)c2)n1 | > 1000 nM | 80.8 nM | – |
| Clc1ccc(-n2ccc(OCCN3CCCC3)n2)cc1Cl | 23.7 nM | 15.7 nM | – |
| Cc1cc(OCCCCN2CCOCC2)nn1-c1ccc2ccccc2c1 | 428 nM | 99.1 nM | – |
| Cc1cc(OCCN2CCCCC2)nn1-c1ccc(Cl)c(Cl)c1 | 209 nM | 5.5 nM | – |
| Clc1ccc(-n2ccc(OCCCCN3CCSCC3)n2)cc1Cl | 344 nM | 10.2 nM | – |
| CCOC(=O)N1CCN(CCOc2cc(C)n(-c3ccc(Cl)c(Cl)c3)n2)CC1 | > 1000 nM | 44 nM | microsomal CLint at 10 µM [4]: 26 µL/min/mg |
| Cc1cc(OCCN2CCCCCC2)nn1-c1ccc(Cl)c(Cl)c1 | 63.5 nM | 9.4 nM | – |
| Cc1cc(OCCN2CCOCC2=O)nn1-c1ccc2ccccc2c1 | > 1000 nM | > 1000 nM | – |
| CCN(CC)CCOc1cc(C)n(-c2ccc3ccccc3c2)n1 | 589 nM | 47 nM | – |
| CC(=O)N1CCN(CCOc2cc(C)n(-c3ccc4ccccc4c3)n2)CC1 | > 1000 nM | 83.4 nM | – |
| Clc1ccc(-n2nc(OCCN3CCOCC3)cc2-c2ccccc2)cc1Cl | > 1000 nM | 224 nM | – |
| Clc1ccc(-n2ccc(OCCCN3CCOCC3)n2)cc1Cl | 394 nM | 16.1 nM | – |
| Cc1cc(OCCN2CCOCC2)n(-c2ccc3ccccc3c2)n1 | > 1000 nM | > 1000 nM | – |
| Cc1cc(OCCN2CCC(n3cnc4cccnc43)CC2)nn1-c1ccc(Cl)c(Cl)c1 | 435 nM | 16 nM | – |
| Cc1cc(OCCN2CCCCC2)nn1-c1ccc2ccccc2c1 | 84.7 nM | 10 nM | – |
| Cc1cc(OCCN2CCOCC2)nn1-c1cccc(Cl)c1 | > 1000 nM | 180 nM | – |
| Cc1cc(OCCN2CCC(C)CC2)nn1-c1ccc(Cl)c(Cl)c1 | 161 nM | 8.4 nM | – |
| Cc1cc(OCCCCn2ccnc2)nn1-c1ccc(Cl)c(Cl)c1 | > 1000 nM | 854 nM | – |
| CC(C)C[C@H](CN)CC(=O)O [PREGABALIN] | – | – | Activity [6]: Toxic; inhibition [7]: Active; inhibition [8]: Active |

| Structure (SMILES) | Ki [1] | Ki [2] | also measured |
| --- | --- | --- | --- |
| c1ccc2cc(-n3ccc(OCCN4CCOCC4)n3)ccc2c1 | > 1000 nM | 33.3 nM | IC50 [5]: > 10 µM; microsomal CLint at 10 µM [4]: 6 µL/min/mg; inhibition in vivo at 32 mg/kg [9]: 55% |
| C[C@@H]1CN(CCCCOc2ccn(-c3ccc(Cl)c(Cl)c3)n2)C[C@H](C)O1 | 153 nM | 14.8 nM | – |
| Cc1cc(OCCN2CCOCC2)nn1-c1ccccc1 | > 1000 nM | > 1000 nM | – |
| Clc1ccc(-n2ccc(NCCN3CCCCC3)n2)cc1Cl | 90.5 nM | 9.5 nM | – |
| Cc1cc(OCCCCN2C[C@@H](C)O[C@@H](C)C2)nn1-c1ccc2ccccc2c1 | 226 nM | 65 nM | – |
| CCN(CC)CCCCOc1cc(C)n(-c2ccc(Cl)c(Cl)c2)n1 | 45.5 nM | 11.7 nM | – |
| Cc1cc(OCCCN2CCN(C)CC2)nn1-c1ccc(Cl)c(Cl)c1 | 170 nM | 13.3 nM | – |
| Clc1ccc(-n2ccc(OCCN3CCOCC3)n2)cc1Cl | 280 nM | 8.2 nM | – |
| Cc1cc(OCCN2CCCC2)nn1-c1ccc(Cl)c(Cl)c1 | 483 nM | 5.2 nM | – |
| Cc1cc(OCCN2CCN(c3ccccc3)CC2)nn1-c1ccc(Cl)c(Cl)c1 | 563 nM | 14.8 nM | – |
| Cc1cc(OCCNC2CCCCC2)nn1-c1ccc(Cl)c(Cl)c1 | 8.8 nM | 8.5 nM | – |
| Clc1ccc(-n2ccc(NCCN3CCOCC3)n2)cc1Cl | 562 nM | 39.4 nM | – |
| Cc1cc(OCCn2ccnc2)nn1-c1ccc(Cl)c(Cl)c1 | > 1000 nM | 294 nM | – |
| CCN(CC)CCOc1cc(C)n(-c2ccc(Cl)c(Cl)c2)n1 | 250 nM | 9.9 nM | – |
| CC(=O)N1CCN(CCCCOc2cc(C)n(-c3ccc4ccccc4c3)n2)CC1 | 324 nM | 296 nM | – |
| Cc1cc(OCCCCN2CCOCC2)nn1-c1ccc(Cl)c(Cl)c1 | 245 nM | 13.3 nM | – |
| CC1CCN(CCOc2ccn(-c3ccc(Cl)c(Cl)c3)n2)CC1 | 32.8 nM | 8.6 nM | – |
| Cc1c(OCCN2CCOCC2)nn(-c2ccc3ccccc3c2)c1C | > 1000 nM | 139 nM | – |
| Clc1ccc(-n2ccc(OCCN3CCCCCC3)n2)cc1Cl | – | 8.9 nM | – |
| COc1ccc(-n2nc(OCCN3CCOCC3)cc2C)cc1 | > 1000 nM | > 1000 nM | – |
| Cc1cc(OCCN2CCOCC2)nn1-c1ccc(Cl)cc1Cl | > 1000 nM | 44 nM | microsomal CLint at 10 µM [4]: 25 µL/min/mg |
| Cc1cc(OCCCCN2CCC(c3ccccc3)CC2)nn1-c1ccc(Cl)c(Cl)c1 | 26.7 nM | 26 nM | – |
| CN1CCN(CCCOc2ccn(-c3ccc(Cl)c(Cl)c3)n2)CC1 | 307 nM | 16.5 nM | – |
| CC(=O)C1CCN(CCOc2ccn(-c3ccc(Cl)c(Cl)c3)n2)CC1 | > 1000 nM | 7.2 nM | inhibition in vivo at 16 mg/kg [3]: 73%; IC50 [5]: 4.5 µM; microsomal CLint at 10 µM [4]: 7 µL/min/mg |
